# Tests used:
# [1] = biological target: T1, Mineralocorticoid receptor (Homo sapiens, UniProt P08235); assay: Binding affinity to mineralocorticoid receptor (unknown origin)
# T1 sequence (P08235 whole entry): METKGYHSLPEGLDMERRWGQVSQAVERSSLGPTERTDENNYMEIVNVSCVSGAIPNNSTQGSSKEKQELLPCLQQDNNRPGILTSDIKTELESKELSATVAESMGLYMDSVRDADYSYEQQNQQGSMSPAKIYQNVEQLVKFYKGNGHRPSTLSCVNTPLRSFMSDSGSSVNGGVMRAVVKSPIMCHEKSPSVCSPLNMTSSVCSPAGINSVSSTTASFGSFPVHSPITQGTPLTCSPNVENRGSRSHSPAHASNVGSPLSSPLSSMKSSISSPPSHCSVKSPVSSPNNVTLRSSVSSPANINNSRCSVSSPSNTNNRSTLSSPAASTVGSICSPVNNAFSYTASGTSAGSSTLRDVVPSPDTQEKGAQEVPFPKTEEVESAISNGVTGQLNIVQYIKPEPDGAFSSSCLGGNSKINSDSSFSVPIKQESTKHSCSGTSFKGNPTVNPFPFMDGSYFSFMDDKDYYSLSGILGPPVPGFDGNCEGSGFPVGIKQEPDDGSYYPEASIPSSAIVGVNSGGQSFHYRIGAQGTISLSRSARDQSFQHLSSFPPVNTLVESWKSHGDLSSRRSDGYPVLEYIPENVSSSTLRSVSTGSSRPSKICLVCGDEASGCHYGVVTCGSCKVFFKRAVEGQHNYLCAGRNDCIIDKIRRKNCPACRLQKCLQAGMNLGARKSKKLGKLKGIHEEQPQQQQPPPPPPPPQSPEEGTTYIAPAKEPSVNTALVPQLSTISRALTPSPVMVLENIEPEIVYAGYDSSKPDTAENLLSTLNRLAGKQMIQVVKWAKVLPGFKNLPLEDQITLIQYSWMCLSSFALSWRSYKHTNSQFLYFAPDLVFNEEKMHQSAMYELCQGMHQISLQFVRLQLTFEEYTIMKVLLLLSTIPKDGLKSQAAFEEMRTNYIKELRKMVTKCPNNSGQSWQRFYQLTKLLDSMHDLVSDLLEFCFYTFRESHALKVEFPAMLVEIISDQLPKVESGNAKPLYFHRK
# [2] = Half life in iv dosed rat; assay type: ADME, organism-based; conditions: in vivo
# Estrogen receptor beta = Estrogen receptor beta (Homo sapiens, UniProt Q92731); assay: Binding affinity to ER-beta (unknown origin)
# Cytochrome P450 2D6 = Cytochrome P450 2D6 (Homo sapiens, UniProt P10635); assay: Inhibition of CYP2D6 (unknown origin); assay type: ADME
# Cytochrome P450 2C19 = Cytochrome P450 2C19 (Homo sapiens, UniProt P33261); assay: Inhibition of CYP2C19 (unknown origin); assay type: ADME
# Glucocorticoid receptor = biological target: T2, Glucocorticoid receptor (Homo sapiens, UniProt P04150)
# T2 sequence (P04150 whole entry): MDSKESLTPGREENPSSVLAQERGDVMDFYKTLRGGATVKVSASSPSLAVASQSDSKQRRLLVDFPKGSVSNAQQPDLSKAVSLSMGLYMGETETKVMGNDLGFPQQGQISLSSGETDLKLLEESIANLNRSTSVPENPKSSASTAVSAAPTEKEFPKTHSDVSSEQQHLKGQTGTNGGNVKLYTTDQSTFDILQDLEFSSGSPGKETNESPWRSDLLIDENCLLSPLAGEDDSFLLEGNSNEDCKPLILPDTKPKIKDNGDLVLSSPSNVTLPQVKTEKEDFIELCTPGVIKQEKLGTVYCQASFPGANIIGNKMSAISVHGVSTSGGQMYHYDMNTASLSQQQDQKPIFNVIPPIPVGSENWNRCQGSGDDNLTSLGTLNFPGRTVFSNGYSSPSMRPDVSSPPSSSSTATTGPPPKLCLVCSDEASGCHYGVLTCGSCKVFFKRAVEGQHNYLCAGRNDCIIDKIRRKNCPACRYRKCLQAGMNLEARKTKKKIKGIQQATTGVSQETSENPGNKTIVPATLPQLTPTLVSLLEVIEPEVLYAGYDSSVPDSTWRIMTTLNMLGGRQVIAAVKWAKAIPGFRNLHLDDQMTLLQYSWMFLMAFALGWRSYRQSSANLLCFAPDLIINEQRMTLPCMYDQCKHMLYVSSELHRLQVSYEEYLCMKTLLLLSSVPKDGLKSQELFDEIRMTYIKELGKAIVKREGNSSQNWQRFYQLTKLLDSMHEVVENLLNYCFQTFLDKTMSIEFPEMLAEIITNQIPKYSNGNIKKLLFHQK
# Description: Agonist activity at glucocorticoid receptor in human PBMC assessed as inhibition of LPS-stimulated TNF-alpha release
# Androgen receptor = biological target: T3, Androgen receptor (Homo sapiens, UniProt P10275); assay: Binding affinity to androgen receptor (unknown origin)
# T3 sequence (P10275 whole entry): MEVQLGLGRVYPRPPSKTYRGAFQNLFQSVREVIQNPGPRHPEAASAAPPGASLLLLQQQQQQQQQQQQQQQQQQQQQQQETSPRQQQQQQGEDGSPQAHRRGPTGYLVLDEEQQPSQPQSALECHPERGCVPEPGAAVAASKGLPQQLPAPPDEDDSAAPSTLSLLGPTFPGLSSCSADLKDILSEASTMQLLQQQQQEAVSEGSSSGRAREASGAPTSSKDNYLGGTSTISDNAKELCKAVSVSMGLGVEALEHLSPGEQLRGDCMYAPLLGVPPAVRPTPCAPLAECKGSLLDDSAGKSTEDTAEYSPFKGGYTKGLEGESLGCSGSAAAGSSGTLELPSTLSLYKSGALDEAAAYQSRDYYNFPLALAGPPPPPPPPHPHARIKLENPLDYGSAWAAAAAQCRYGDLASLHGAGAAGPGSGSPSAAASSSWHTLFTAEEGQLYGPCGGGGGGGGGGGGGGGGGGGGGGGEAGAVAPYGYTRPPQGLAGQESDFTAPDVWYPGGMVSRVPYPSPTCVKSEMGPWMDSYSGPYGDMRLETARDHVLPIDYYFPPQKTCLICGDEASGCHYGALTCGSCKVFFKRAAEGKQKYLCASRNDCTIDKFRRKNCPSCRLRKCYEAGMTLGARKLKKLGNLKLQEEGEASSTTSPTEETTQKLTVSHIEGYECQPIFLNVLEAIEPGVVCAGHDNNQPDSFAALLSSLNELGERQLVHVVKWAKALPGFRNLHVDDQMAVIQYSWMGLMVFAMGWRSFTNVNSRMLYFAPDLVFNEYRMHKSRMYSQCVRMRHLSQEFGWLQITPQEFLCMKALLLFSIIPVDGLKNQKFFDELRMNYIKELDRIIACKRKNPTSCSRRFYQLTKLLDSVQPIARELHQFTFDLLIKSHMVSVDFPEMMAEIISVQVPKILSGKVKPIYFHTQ
# [3] = biological target: Voltage-gated inwardly rectifying potassium channel KCNH2 (Homo sapiens, UniProt Q12809); assay: Inhibition of human ERG channel
# Sequence of Voltage-gated inwardly rectifying potassium channel KCNH2 (Q12809 whole entry): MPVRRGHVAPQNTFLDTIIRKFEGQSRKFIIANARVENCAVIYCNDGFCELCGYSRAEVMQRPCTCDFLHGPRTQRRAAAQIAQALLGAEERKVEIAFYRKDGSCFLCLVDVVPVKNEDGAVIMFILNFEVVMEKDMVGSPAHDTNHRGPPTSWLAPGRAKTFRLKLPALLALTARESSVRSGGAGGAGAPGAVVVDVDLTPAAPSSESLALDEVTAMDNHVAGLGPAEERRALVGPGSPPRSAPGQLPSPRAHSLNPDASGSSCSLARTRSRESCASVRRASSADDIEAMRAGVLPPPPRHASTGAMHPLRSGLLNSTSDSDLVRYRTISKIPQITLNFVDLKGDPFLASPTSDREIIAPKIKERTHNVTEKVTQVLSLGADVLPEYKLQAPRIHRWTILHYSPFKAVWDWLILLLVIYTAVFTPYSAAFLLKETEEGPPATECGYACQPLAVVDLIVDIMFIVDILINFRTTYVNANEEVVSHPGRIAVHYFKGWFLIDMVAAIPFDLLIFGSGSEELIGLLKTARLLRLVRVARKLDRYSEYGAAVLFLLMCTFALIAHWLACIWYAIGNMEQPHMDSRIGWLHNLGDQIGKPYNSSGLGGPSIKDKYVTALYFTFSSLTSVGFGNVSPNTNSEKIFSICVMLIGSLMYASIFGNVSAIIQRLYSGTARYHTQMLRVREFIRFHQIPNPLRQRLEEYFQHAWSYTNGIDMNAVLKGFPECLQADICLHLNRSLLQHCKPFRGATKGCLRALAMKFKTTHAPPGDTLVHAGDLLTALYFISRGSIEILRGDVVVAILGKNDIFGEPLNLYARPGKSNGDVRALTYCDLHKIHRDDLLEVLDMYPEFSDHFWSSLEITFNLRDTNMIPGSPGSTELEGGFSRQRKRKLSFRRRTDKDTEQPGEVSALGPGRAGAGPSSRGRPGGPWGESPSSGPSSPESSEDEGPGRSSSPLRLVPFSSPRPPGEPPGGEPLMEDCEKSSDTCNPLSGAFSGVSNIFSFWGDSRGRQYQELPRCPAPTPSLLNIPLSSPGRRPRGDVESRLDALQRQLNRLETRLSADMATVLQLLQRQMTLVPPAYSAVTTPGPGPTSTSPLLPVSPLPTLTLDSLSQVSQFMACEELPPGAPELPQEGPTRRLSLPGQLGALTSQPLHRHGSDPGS
# Sequence of Cytochrome P450 2C19 (P33261 whole entry): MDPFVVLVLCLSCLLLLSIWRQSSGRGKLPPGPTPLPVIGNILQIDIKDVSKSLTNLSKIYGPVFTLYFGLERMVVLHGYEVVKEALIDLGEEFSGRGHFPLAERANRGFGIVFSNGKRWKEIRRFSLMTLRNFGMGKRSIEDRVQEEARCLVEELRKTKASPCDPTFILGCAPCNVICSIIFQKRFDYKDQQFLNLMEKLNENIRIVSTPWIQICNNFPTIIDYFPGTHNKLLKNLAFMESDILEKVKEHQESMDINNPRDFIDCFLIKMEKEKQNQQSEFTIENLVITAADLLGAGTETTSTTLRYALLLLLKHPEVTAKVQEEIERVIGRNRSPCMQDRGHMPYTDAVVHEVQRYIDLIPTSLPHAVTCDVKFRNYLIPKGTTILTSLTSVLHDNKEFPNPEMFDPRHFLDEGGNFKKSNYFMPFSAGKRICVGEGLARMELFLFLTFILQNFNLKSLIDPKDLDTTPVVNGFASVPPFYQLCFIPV
# Sequence of Cytochrome P450 2D6 (P10635 whole entry): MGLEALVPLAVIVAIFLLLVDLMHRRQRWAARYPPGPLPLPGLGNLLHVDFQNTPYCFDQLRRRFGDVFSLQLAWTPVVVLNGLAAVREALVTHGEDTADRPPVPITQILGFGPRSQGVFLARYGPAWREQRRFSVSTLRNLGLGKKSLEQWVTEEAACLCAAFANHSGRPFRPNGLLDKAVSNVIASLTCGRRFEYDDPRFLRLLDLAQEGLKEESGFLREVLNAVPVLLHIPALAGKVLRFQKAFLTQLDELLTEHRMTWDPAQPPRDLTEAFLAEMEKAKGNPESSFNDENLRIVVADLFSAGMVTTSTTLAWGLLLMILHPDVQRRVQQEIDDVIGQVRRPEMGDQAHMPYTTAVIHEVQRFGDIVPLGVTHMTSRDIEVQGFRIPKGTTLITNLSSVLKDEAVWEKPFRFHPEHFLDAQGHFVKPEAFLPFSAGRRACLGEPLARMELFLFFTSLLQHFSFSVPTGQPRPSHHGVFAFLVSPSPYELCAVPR
# Sequence of Estrogen receptor beta (Q92731 whole entry): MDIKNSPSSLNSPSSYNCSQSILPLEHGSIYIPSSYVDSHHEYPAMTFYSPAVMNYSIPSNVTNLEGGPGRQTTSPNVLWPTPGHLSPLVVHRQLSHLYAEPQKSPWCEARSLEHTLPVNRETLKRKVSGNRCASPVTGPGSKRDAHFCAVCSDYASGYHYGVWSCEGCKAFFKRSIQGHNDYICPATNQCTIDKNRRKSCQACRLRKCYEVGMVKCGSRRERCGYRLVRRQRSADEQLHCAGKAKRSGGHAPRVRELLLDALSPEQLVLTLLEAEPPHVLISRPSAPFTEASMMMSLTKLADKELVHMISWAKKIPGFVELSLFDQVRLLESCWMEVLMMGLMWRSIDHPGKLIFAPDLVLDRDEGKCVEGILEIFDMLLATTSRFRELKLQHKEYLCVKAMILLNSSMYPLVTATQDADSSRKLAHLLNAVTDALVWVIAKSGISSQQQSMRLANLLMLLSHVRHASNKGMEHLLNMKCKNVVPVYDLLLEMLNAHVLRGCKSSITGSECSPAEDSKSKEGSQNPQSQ
structure (smiles),measurement,setting,value
Cc1nn(C2CCCC2)c(C)c1S(=O)(=O)N[C@@H](C)CNc1cccc2c1cnn2-c1ccc(F)nc1,IC50,[1],> 5 µM
same,half-life,[2],6.4 h
same,IC50,Estrogen receptor beta,> 5 µM
same,IC50,Cytochrome P450 2D6,> 20 µM
same,IC50,Cytochrome P450 2C19,> 20 µM
same,IC50,Glucocorticoid receptor,0.014 µM
same,IC50,Androgen receptor,> 1 µM
same,IC50,[3],8.7 µM
